Measurements: ChEMBL document CHEMBL3137667, “[Drug-induced liver injury; fourteenth updated edition of the bibliographic database of liver injuries and related drugs]” (Gastroenterol Clin Biol, 2004)

What was measured:
[1] = human, serum
[2] = Times to onset, minimal and maximal, observed in the indexed observations. [column 'DELAI' in source]; conditions: human
[3] = human, serum; remark: listed apart in the source
[4] = Highest frequency of moderate liver toxicity observed during clinical trials, expressed as a percentage. [column '% BIOL' in source]; conditions: human
[5] = Highest frequency of acute liver toxicity observed during clinical trials, expressed as a percentage. [column '% AIGUE' in source]; conditions: human
[6] = human
[7] = human; remark: listed apart in the source
[8] = human; remark: listed apart in the source
[9] = human; remark: listed apart in the source
[10] = human; remark: listed apart in the source
[11] = human, serum, 4383 h
[12] = human; remark: listed apart in the source
[13] = human; remark: listed apart in the source
[14] = human; remark: listed apart in the source
[15] = human; remark: listed apart in the source
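Throughout, for Hepatotoxicity (association with vascular disease): count of indexed literature references reporting vascular liver injury in humans, e.g. peliosis hepatitis, hepatic veno-occlusive disease or Budd-Chiari syndrome.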
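Throughout, for Hepatotoxicity (benign tumour): value is a count of indexed literature references citing a benign tumour confirmed by histopathology.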
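Throughout, for Hepatotoxicity (choleostasis): human cholestatic liver injury, shown by histopathology or by peak ALT or AST elevation over alkaline phosphatase ratio below 2, value counts indexed literature reports.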
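Throughout, for Hepatotoxicity (chronic liver disease): chronic liver injury confirmed by histopathology or persistently raised serum aminotransferase activity beyond 6 months, value given as the count of indexed literature references.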
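Throughout, for Hepatotoxicity (cirrhosis): value is a count of indexed literature references reporting cirrhosis confirmed by histopathology.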
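Throughout, for Hepatotoxicity (cytolytic): human cytolytic liver injury, shown by histopathology or by a ratio above 5 of peak ALT or AST elevation to alkaline phosphatase elevation, value counts indexed references.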
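Throughout, for Hepatotoxicity (granulomatous hepatitis): value is a count of indexed literature references reporting granulomatous liver disease confirmed by histopathology.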
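Throughout, for Hepatotoxicity (malignant tumour): malignant tumour confirmed by histopathology, value gives the count of indexed literature references reporting it.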
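Throughout, for Hepatotoxicity (severe hepatitis): human clinical data: severe hepatitis, meaning potentially life-threatening liver failure or clinically observed cases, the value counts how many indexed literature references report it.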
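Throughout, for Hepatotoxicity (steatosis): steatosis confirmed by histopathology, value is the count of indexed references.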

| SMILES | Hepatotoxicity (moderate) [1] | Hepatotoxicity (time to onset) [2] | Hepatotoxicity (acute) [3] | Hepatotoxicity (moderate) [4] [%] | Hepatotoxicity (acute) [5] [%] | Hepatotoxicity (severe hepatitis) [6] | Hepatotoxicity (malignant tumour) [7] | Hepatotoxicity (cytolytic) [8] | Hepatotoxicity (cirrhosis) [9] | Hepatotoxicity (choleostasis) [10] | Hepatotoxicity (chronic liver disease) [11] | Hepatotoxicity (steatosis) [12] | Hepatotoxicity (association with vascular disease) [13] | Hepatotoxicity (benign tumour) [14] | Hepatotoxicity (granulomatous hepatitis) [15] | Hepatotoxicity (moderate) ([4]; Liver) [%] | Hepatotoxicity (acute) ([5]; Liver) [%] | Hepatotoxicity (severe hepatitis) ([6]; Liver) |
| --- | --- | --- | --- | --- | --- | --- | --- | --- | --- | --- | --- | --- | --- | --- | --- | --- | --- | --- |
| CN(c1nccc(=O)[nH]1)C1CCN(c2nc3ccccc3n2Cc2ccc(F)cc2)CC1 [MIZOLASTINE] | 0 | 2 months | 2 | 0 | 0 | 0 | 0 | 2 | 0 | 0 | 0 | 0 | 0 | 0 | 0 |  |  |  |
| O=C(NCCN1CCOCC1)c1ccc(Cl)cc1 [MOCLOBEMIDE] | 1 | 1 week - 9 days | 1 | 0 | 0 | 1 | 0 | 0 | 0 | 1 | 0 | 0 | 0 | 0 | 0 |  |  |  |
| CCCCC1C(=O)NN(c2ccccc2)C1=O (stereo not given) [MOFEBUTAZONE] | 0 | 2 years | 1 | 0 | 0 | 0 | 0 | 1 | 1 | 0 | 0 | 0 | 0 | 0 | 0 |  |  |  |
| CCOC(=O)Nc1ccc2c(c1)N(C(=O)CCN1CCOCC1)c1ccccc1S2 [MORICIZINE] | 4 | 6 days | 0 | 1.2 | 0 | 0 | 0 | 0 | 0 | 0 | 0 | 0 | 0 | 0 | 0 |  |  |  |
| O=C(NCN1CCOCC1)c1cnccn1 [MORINAMIDE] | 2 | 4 months | 2 | 1.8 | 0.5 | 1 | 0 | 2 | 0 | 0 | 0 | 0 | 0 | 0 | 0 |  |  |  |
| COc1nc(C)nc(Cl)c1N=C1NCCN1 [MOXONIDINE] | 0 | 9 months | 1 |  |  |  | 0 | 1 | 0 | 1 | 0 | 0 | 0 | 0 | 0 | 0 | 0 | 1 |
| COc1c(C)c2c(c(O)c1C/C=C(\C)CCC(=O)OCCN1CCOCC1)C(=O)OC2 [MYCOPHENOLATE MOFETIL] | 3 | 2 weeks | 1 | 33.3 | 0 | 0 | 0 | 1 | 0 | 0 | 0 | 0 | 0 | 0 | 0 |  |  |  |
| CCN(CC)CCOC(=O)[C@@H](Cc1cccc2ccccc12)C[C@@H]1CCCO1 [NAFTIDROFURYL] | 0 | 7 weeks - 4.3 months | 3 | 0 | 0 | 0 | 0 | 2 | 0 | 2 | 0 | 0 | 0 | 0 | 1 |  |  |  |
| CN1CCOC(c2ccccc2)c2ccccc2C1 (stereo not given) [NEFOPAM] | 1 | 4 weeks | 0 | 14.3 | 0 | 0 | 0 | 0 | 0 | 0 | 0 | 0 | 0 | 0 | 0 |  |  |  |
| O=[N+]([O-])c1cc(Cl)cc(-c2cc(Cl)cc([N+](=O)[O-])c2O)c1O [NICLOFOLAN] | 0 | 1 week | 1 | 0 | 0 | 0 | 0 | 0 | 0 | 1 | 0 | 0 | 0 | 0 | 0 |  |  |  |
| COCCOC(=O)C1=C(C)NC(C)=C(C(=O)OC(C)C)C1c1cccc([N+](=O)[O-])c1 (stereo not given) [NIMODIPINE] | 5 | 6 months | 3 | 2.7 | 0.7 | 0 | 0 | 1 | 0 | 0 | 0 | 0 | 0 | 0 | 0 |  |  |  |
| CNC(=C[N+](=O)[O-])NCCSCc1csc(CN(C)C)n1 [NIZATIDINE] | 3 | 2 weeks | 2 | 3.5 | 0.2 | 1 | 0 | 2 | 1 | 0 | 0 | 0 | 0 | 0 | 0 |  |  |  |
| CC(=O)[C@@]1(O)CC[C@H]2[C@@H]3C=C(C)C4=CC(=O)CC[C@@H]4[C@H]3CC[C@@]21C [NOMEGESTROL] | 0 | 4 months - 5 months | 2 | 0 | 0 | 2 | 0 | 2 | 0 | 0 | 0 | 0 | 0 | 0 | 0 |  |  |  |
| OCCN1CCN(CCCN2c3ccccc3C=Cc3ccccc32)CC1 [OPIPRAMOL] | 0 | 11 days - 11 weeks | 2 | 0 | 0 | 1 | 0 | 2 | 0 | 0 | 0 | 0 | 0 | 0 | 0 |  |  |  |
| CCCCCCCCCCC[C@@H](C[C@@H]1OC(=O)[C@H]1CCCCCC)OC(=O)[C@H](CC(C)C)NC=O [ORLISTAT] | 0 | 3 weeks - 1.5 months | 2 | 0 | 0 | 1 | 0 | 1 | 0 | 1 | 0 | 0 | 0 | 0 | 0 |  |  |  |
